{
  "source": "patent US20230382998A1",
  "about": "“METHODS FOR TREATING INFLAMMATORY BOWEL DISEASES WITH a4B7 INTEGRIN ANTAGONISTS” (Protagonist Therapeutics, Inc., priority 2022, published 2023)",
  "key": {"[1]": {"tested_on": "subjects with moderate to severe active ulcerative colitis", "assay": "Phase 2 randomized, double-blind, placebo-controlled study of oral Compound (I), 12-week induction", "assay_type": "in vivo, human", "conditions": "FIG. 3; for proportion of subjects achieving clinical remission at Week 12, total: 150 mg BID + 450 mg BID", "source_text": "As used herein, the term “clinical remission rate” refers to when the symptoms of IBD have lessened to the point that they're mostly absent or gone, including endoscopic remission, wherein inflammation is seen during a colonoscopy or a sigmoidoscopy and determined by a healthcare provider that the lining of the digestive tract is improved or healed. […] As used herein, the term “compound of formula (I)” or Compound (I) refers to a peptide compound having the following structure:\nThe study also evaluates the pharmacokinetic (PK) and pharmacodynamics (PD) and biomarker responses to treatment with oral Compound (I).\nThis is a two-part study: Part 1 is a randomized, double-blind, placebo-controlled, parallel design 12-week induction treatment period in patients with moderate to severe active UC; and Part 2 is an extended treatment period of 40 weeks that will include subjects who successfully complete Part 1. Subjects who complete the Week 12 visit for Part 1 will be eligible to enter Part 2.\nPart 1 is a 12-week randomized, double-blind, placebo-controlled, parallel design study in adult subjects with moderate to severe active UC. Eligible subjects are randomized 1:1:1 to Compound (I) 450 mg twice daily (BID), Compound (I) 150 mg BID, or placebo BID. Subjects must have a biopsy-confirmed diagnosis of UC. […] Subjects with a history of prior vedolizumab treatment will be excluded. Randomization will be stratified by prior failure to a TNFα antagonist or an IL-12/23 antagonist.\nPrimary outcome measures include the proportion of subjects achieving clinical remission at Week 12 compared to placebo. Clinical remission is determined using the Adapted Mayo score (sum of 3 subscores from the Mayo score): • Stool frequency subscore (SFS) • Rectal bleeding subscore (RBS) • Endoscopic subscore (ESS)\nEfficacy is assessed, at least in part, based on the Mayo score. The Mayo score includes 4 components: Stool Frequency Subscore (SFS), Rectal Bleeding Subscore (RBS), Endoscopic Subscore (ESS) and Physician's Global Assessment (PGA). Each of the individual scores range from 0 to 3 with higher number indicating higher severity): • Complete Mayo Score is a sum of all 4 subscores (SFS, RBS, ESS and PGA) and ranges from 0 to 12 points. • Adapted Mayo Score is a sum of 3 subscores (SFS, RBS and ESS). The Adapted Mayo score ranges from 0 to 9 points. • Partial Mayo Score is a sum of 3 subscores (SFS, RBS and PGA) ranging from 0 to 9 points.\nBlood samples for measurement of Compound (I) plasma concentrations will be collected at 0 (within 1 hour pre-dose) and at 1, 2, and 4 hours post-dose on Week 0 (Study Day 1) and Week 12. A single pre-dose sample should be collected within 1 hour prior to the first dose of the day on each clinic visit.\nBlood (4 mL) samples for PK analysis will be obtained in K2EDTA tubes prior to dosing and at the time points delineated in the study schedule. All samples (except those collected post-dose on Day 0 and Day 84) should be obtained prior to the daily dosing of study drug (i.e. Ctrough)."}, "[2]": {"assay": "DTT (Dithiothreitol) assay, stability to gastric environment under reduced conditions", "assay_type": "physicochemical", "protocol": "The compound of formula (I) or a pharmaceutically acceptable salt thereof comprises a half-life from approximately 1 minute to approximately 180 minutes."}, "[3]": {"conditions": "trough concentration quartile Q1 at week 12"}, "[4]": {"conditions": "trough concentration quartile Q2 at week 12"}, "[5]": {"conditions": "trough concentration quartile Q3 at week 12"}, "[6]": {"conditions": "trough concentration quartile Q4 at week 12"}},
  "note": "Numbered stars: 1 amine (or outer) side, 2 acyl side, 3 side chain; on linkers, the order of the positions; unused ones are H or OH. Bridge positions count the residues as written; N and C are the ends. Square brackets hold non-standard residues; d marks the D form. Peptide text beside a SMILES is read from it. I, II: the chains in the order shown. ξ: configuration not given here. Phe(4-tBu) = CC(C)(C)c1ccc(C[C@H](N)C(=O)O)cc1; Diglycolyl = O=C(COCC(=O)[*:2])[*:1]; NMeR = CN[C@@H](CCCNC(=N)N)C(=O)O; β3hE = N[C@@H](CCC(=O)O)CC(=O)O; Thr(3ξ) = CC(O)[C@H](N)C(=O)O; X1 = O=C(c1ccccc1C[*:2])[*:1]; Pen = CC(C)(S)[C@H](N)C(=O)O",
  "data": [
    {"smiles": "CC(C)C[C@@H]1NC(=O)[C@H](C(C)O)NC(=O)[C@H](CC(=O)O)NC(=O)[C@H](CO)NC(=O)[C@H](CCCNC(=N)N)N(C)C(=O)c2ccccc2CSC(C)(C)[C@@H](C(=O)N[C@@H](Cc2ccc(C(C)(C)C)cc2)C(=O)N[C@@H](CCC(=O)O)CC(=O)N[C@H](CCCCNC(=O)COCC(=O)NCCCC[C@@H](NC(=O)C[C@H](CCC(=O)O)NC(=O)[C@H](Cc2ccc(C(C)(C)C)cc2)NC(=O)[C@H]2NC(=O)[C@H](CC(C)C)NC(=O)[C@H](C(C)O)NC(=O)[C@H](CC(=O)O)NC(=O)[C@H](CO)NC(=O)[C@H](CCCNC(=N)N)N(C)C(=O)c3ccccc3CSC2(C)C)C(=O)O)C(=O)O)NC1=O", "note": "(stereo partly drawn) [compound of formula (I)] (I: [NMeR]SD[Thr(3ξ)]L[Pen][Phe(4-tBu)][β3hE][dK]-OH / II: [NMeR]SD[Thr(3ξ)]L[Pen][Phe(4-tBu)][β3hE][dK]-OH; linker I:9-II:9 via Diglycolyl; linker I:N-I:6, II:N-II:6 via X1)", "values": [
      {"measurement": "proportion of subjects achieving clinical remission at Week 12, total", "setting": "[1]; [3]", "value": 33.3, "unit": "%"},
      {"measurement": "proportion of subjects achieving clinical remission at Week 12, part being 450 mg BID dose", "setting": "[1]; [3]", "value": 26.7, "unit": "%"},
      {"measurement": "proportion of subjects achieving clinical remission at Week 12, total", "setting": "[1]; [4]", "value": 40, "unit": "%"},
      {"measurement": "proportion of subjects achieving clinical remission at Week 12, part being 450 mg BID dose", "setting": "[1]; [4]", "value": 26.7, "unit": "%"},
      {"measurement": "proportion of subjects achieving clinical remission at Week 12, total", "setting": "[1]; [5]", "value": 13.3, "unit": "%"},
      {"measurement": "proportion of subjects achieving clinical remission at Week 12, part being 450 mg BID dose", "setting": "[1]; [5]", "value": 6.7, "unit": "%"},
      {"measurement": "proportion of subjects achieving clinical remission at Week 12, total", "setting": "[1]; [6]", "value": 18.8, "unit": "%"},
      {"measurement": "proportion of subjects achieving clinical remission at Week 12, part being 450 mg BID dose", "setting": "[1]; [6]", "value": 6.3, "unit": "%"},
      {"measurement": "half-life", "setting": "[2]", "value": "> 2", "unit": "h"}
    ]}
  ]
}
